Series [1] in a line: Cytotoxicity against human CEM/0 cells. Type of series: cell-based, CCRF-CEM.
Series [2] deals with Human immunodeficiency virus 2. Nature of the series: Antiviral activity against HIV2 ROD in TK1 deficient human CEM cells assessed as inhibition of virus-induced cytopathogenicity. The series is classed as functional, organism-based. The note with it: Human immunodeficiency virus 2, ROD, CCRF-CEM. Background: Damage to the host cells serves as the signal in cytopathic effect assays.

In series [3] the test system is Human immunodeficiency virus 2. Nature of the series: Antiviral activity against HIV2 ROD in CEM/0 cells assessed as inhibition of virus-induced cytopathogenicity. Type of series: functional, organism-based. The note with it: Human immunodeficiency virus 2, ROD, CCRF-CEM.
In series [4] the test system is Human immunodeficiency virus 1. Description: Antiviral activity against HIV1 in CEM cells assessed as reduction of viral replication at 5 to 10 uM. The series is classed as functional, CCRF-CEM. Also noted: scale not given: the % may be the effect or the level left.
Series [5] addresses T1, Thymidine kinase, cytosolic (Homo sapiens, UniProt P04183).
T1 sequence (P04183 whole entry): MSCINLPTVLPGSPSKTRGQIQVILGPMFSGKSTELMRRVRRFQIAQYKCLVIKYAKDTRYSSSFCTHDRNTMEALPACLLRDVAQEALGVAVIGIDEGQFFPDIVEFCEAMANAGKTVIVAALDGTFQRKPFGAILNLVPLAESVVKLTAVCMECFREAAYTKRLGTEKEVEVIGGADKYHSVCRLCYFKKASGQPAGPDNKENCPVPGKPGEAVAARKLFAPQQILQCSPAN
Nature of the series: Inhibition of recombinant TK1-mediated phosphorylation of [CH3-3H]deoxythymidine.

Series [6] concerns Human immunodeficiency virus 1. Nature of the series: Antiviral activity against HIV1 3B in CEM/0 cells assessed as inhibition of virus-induced cytopathogenicity. Type of series: functional, organism-based. The note with it: Human immunodeficiency virus 1, 3B, CCRF-CEM.
The target in series [7] is T1, Thymidine kinase, cytosolic. Nature of the series: Inhibition of recombinant TK1-mediated phosphorylation of [CH3-3H]deoxythymidine in presence of dithiothreitol.
Series [8] deals with Moloney murine sarcoma virus. Description: Inhibition of murine sarcoma virus-induced transformation of mouse embryo fibroblast C3H/3T3 cells after 6 days. The conditions noted are these: C3H/3T3, 144 h.
Series [9] in a line: Chemical stability assessed as half life in presence of dithiothreitol. Type of series: physicochemical.
A short description of series [10]: Cytotoxicity against human Molt4/C8. The note with it: MOLT-4. The series is classed as functional, cell-based.
The nature of series [11]: Chemical stability assessed as half life at pH 7.2 in methanol-water mixture. The series is classed as physicochemical.
Series [12] relates to Human immunodeficiency virus 1. Nature of the series: Antiviral activity against HIV1 in human MT4 cells. The series is classed as functional, organism-based. The conditions noted are these: Human immunodeficiency virus 1, MT4.
Series [13] is described as follows: Cytotoxicity against human MT4 cells. The series is classed as cell-based.

For orientation: CC50 means the concentration that lowers cell viability or growth by half. The term EC50 denotes the concentration at which the effect is half-maximal. By IC50 is commonly meant the concentration that inhibits the measured activity by half. As usually defined, the half-life is how long it takes for the measured level to halve.

Take `CSS[C@H]1C[C@H](n2cc(C)c(=O)[nH]c2=O)O[C@@H]1CO`: the CC50 in series [1] is 102 µM. Further, the EC50 was greater than 50 µM in series [2], 12 µM in series [3], 12 µM in series [6] and 8.3 µM in [8]. Also, the Activity in series [4] stood at 50%. Moreover, the IC50 in series [5] came out at 73 µM; in [7] it was 333 µM; in series [10], 66 µM. The figures for the half-life in series [9] and in series [11] were less than 480 min and less than 5 min, respectively.

In turn, `Cc1cn([C@H]2C[C@H](SSC(Cl)(Cl)Cl)[C@@H](CO)O2)c(=O)[nH]c1=O` showed a CC50 in [1] of 103 µM. For the same molecule, the EC50 in [2] was 22.5 µM; in series [3] it was 17.5 µM; in [6], 20 µM; in series [8] it was greater than 20 µM. Also, the IC50 came to 13 µM in series [5], 365 µM in [7] and 55 µM in series [10]. Also, the half-life in series [9] was less than 90 min; in [11], less than 5 min.

In the case of `Cc1cn([C@H]2C[C@H](SSc3ccc([N+](=O)[O-])cc3)[C@@H](CO)O2)c(=O)[nH]c1=O`, the CC50 in series [1] was determined as 23 µM. Further, the EC50 is no less than 10 µM in series [2], 7.3 µM in series [3], 8 µM in [6] and 0.89 µM in series [8]. Also, the half-life in series [9] is less than 10 min; in series [11] it was less than 5 min. In series [10], half-maximal inhibition (IC50) required 29 µM.

`O=c1nc(O)ccn1[C@H]1C[C@H](SS[C@H]2C[C@H](n3ccc(O)nc3=O)O[C@@H]2CO)[C@@H](CO)O1`: the CC50 in [1] is no less than 250 µM. In addition, the EC50 in [3] and in series [6] was greater than 250 µM each time.

In series [1], `CSS[C@H]1C[C@H](n2cc(Br)c(=O)[nH]c2=O)O[C@@H]1CO` returned a CC50 of 103 µM. Besides, the EC50 in [3] and in [6] was no less than 50 µM throughout.

In turn, `C=CCSS[C@H]1C[C@H](n2cc(C)c(=O)[nH]c2=O)O[C@@H]1CO` gave a CC50 in series [1] of 53 µM. For the same molecule, the EC50 was greater than 50 µM in [2], 15 µM in series [3], 12.5 µM in series [6] and 2.2 µM in series [8]. Further, the half-life is less than 480 min in [9] and less than 5 min in series [11]. Also, inhibition in series [10] was half-maximal at 34 µM (IC50).

Consider `Cc1cn([C@H]2C[C@H](SSCCO)[C@@H](CO)O2)c(=O)[nH]c1=O`, for which the CC50 in [1] worked out at 347 µM. Also, the EC50 in series [2] was greater than 50 µM; in series [3], 14 µM; in series [6], 13.5 µM; in series [8], 5.9 µM. The IC50 in series [5] was 18 µM; in series [7], 405 µM; in series [10], 128 µM. Further, the half-life is less than 480 min in [9] and less than 5 min in [11].

On to `Cc1cn([C@H]2C[C@H](SSCCN)[C@@H](CO)O2)c(=O)[nH]c1=O`, for which the CC50 in series [1] is 437 µM. Also, the EC50 worked out at 150 µM in [2], 27.5 µM in [3], 20 µM in series [6] and 63 µM in series [8]. Moreover, the IC50 in [5] was found to be 10 µM; in [7] it was 418 µM; in series [10], 163 µM. Also, the half-life in series [9] was less than 480 min; in [11], less than 5 min.

The molecule `Nc1ccn([C@H]2C[C@H](SS[C@H]3C[C@H](n4ccc(N)nc4=O)O[C@@H]3CO)[C@@H](CO)O2)c(=O)n1` returned a CC50 in series [1] of 216 µM. In addition, the EC50 worked out at 65 µM in [3] and 73 µM in [6].

In series [1], `CCCCCCCCSS[C@H]1C[C@H](n2cc(C)c(=O)[nH]c2=O)O[C@@H]1CO` came in with a CC50 of 21 µM. For the same molecule, the values for the EC50 in series [2], in [3] and in series [6] were greater than 10 µM, 4.5 µM and 20 µM, respectively. The half-life is less than 480 min in [9] and less than 5 min in [11]. In addition, in series [10], 26 µM corresponded to half-maximal inhibition (IC50).

As to `CSS[C@H]1C[C@H](n2ccc(=O)[nH]c2=O)O[C@@H]1CO`, in [1], the CC50 is 170 µM. In addition, the EC50 in [3] is no less than 50 µM; in series [6] it was greater than 50 µM.

For the molecule `CSS[C@H]1C[C@H](n2ccc(N)nc2=O)O[C@@H]1CO`, the CC50 in [1] worked out at 111 µM. Besides, the EC50 was determined as 45 µM in series [2], 14 µM in series [3], 10 µM in [6] and 48 µM in series [8]. In [10], this molecule gave a 50% inhibitory concentration (IC50) of 149 µM. For the same molecule, the half-life in [11] was less than 5 min.

Consider `Cc1cn([C@H]2C[C@H](SSc3ccccc3[N+](=O)[O-])[C@@H](CO)O2)c(=O)[nH]c1=O`, for which, in [1], the CC50 came out at 18.5 µM. For the same molecule, the EC50 in series [2] is greater than 10 µM; in [3] it was greater than 10 µM; in [6], 10 µM; in [8], 1.1 µM. Besides, the half-life in series [9] is less than 10 min; in series [11], less than 5 min. The molecule also had an IC50 in [10] of 31 µM.

As for `O=c1[nH]c(=O)n([C@H]2C[C@H](SS[C@H]3C[C@H](n4cc(Br)c(=O)[nH]c4=O)O[C@@H]3CO)[C@@H](CO)O2)cc1Br`, the CC50 in [1] is greater than 250 µM. Further, the EC50 in [3] was no less than 250 µM; in series [6] it was 127 µM.

For the molecule `CCCCSS[C@H]1C[C@H](n2cc(C)c(=O)[nH]c2=O)O[C@@H]1CO`, the CC50 in series [1] was found to be 23.3 µM. The EC50 in [2] was greater than 10 µM; in series [3] it was greater than 10 µM; in series [6], 8 µM; in series [8] it was 1 µM. The half-life in series [9] is less than 480 min; in series [11], less than 5 min. In addition, the IC50 in [10] came out at 28 µM.

In turn, `Cc1cn([C@H]2C[C@H](SSCCCCCCO)[C@@H](CO)O2)c(=O)[nH]c1=O` came in with a CC50 in series [1] of 52 µM. Besides, the EC50 in series [2] was greater than 50 µM; in [3], 15 µM; in series [6] it was 15 µM. The half-life in series [9] is less than 480 min; in [11], less than 5 min. For the same molecule, 42 µM corresponded to half-maximal inhibition in series [10] (IC50).

`CCCCCCSS[C@H]1C[C@H](n2cc(C)c(=O)[nH]c2=O)O[C@@H]1CO`: in series [1], the CC50 was 39 µM. In addition, the EC50 was greater than 10 µM in series [2], 6.5 µM in series [3] and 20 µM in series [6]. Also, the half-life in series [9] is less than 480 min; in series [11] it was less than 5 min. The molecule also yielded an IC50 in series [10] of 27 µM.

Molecule `Cc1cn([C@H]2C[C@H](SS[C@H]3C[C@H](n4cc(C)c(O)nc4=O)O[C@@H]3CO)[C@@H](CO)O2)c(=O)nc1O` gave an EC50 in series [12] of 16 µM. This molecule yielded a CC50 in series [13] of 34 µM.

`Nc1ccn(C2C[C@H](S)[C@@H](CO)O2)c(=O)n1` (single isomer, unassigned) showed an EC50 in series [12] of 20 µM.

`Nc1ncnc2c1ncn2CCOCP(=O)(O)O` [ADEFOVIR] registered a half-maximal effective concentration (EC50) in series [8] of 0.53 µM.

Consider `C[C@H](Cn1cnc2c(N)ncnc21)OCP(=O)(O)O` [TENOFOVIR ANHYDROUS], for which the half-maximal effective concentration (EC50) in series [6] was determined as 5.5 µM; in series [8], 0.23 µM.

(Values after ChEMBL document CHEMBL1155006, “Anti-retroviral and cytostatic activity of 2',3'-dideoxyribonucleoside 3'-disulfides” (Bioorg Med Chem, 2008).)
